In ChEMBL document CHEMBL1201862, “PubChem BioAssay data set” (2004):
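Where inhibition never reached the appropriate level, the endpoint shown equals the highest concentration tested. Otherwise, values were interpolated linearly from a five-concentration, 48-hour dose response in 96-well plates. The concentration for 50% growth inhibition is given as GI50.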 Active and inactive are the calls of the source. Cut-off read from the data, not from the text of the source: active = GI50 up to about 1.1 µM and inactive = higher.

Experiments:
Test in all cases: NCI-60 cell line screen, 48 h
OVCAR-8 = system: OVCAR-8
NCI-H522 = system: NCI-H522
SR = system: SR
K562 = system: K562
SK-OV-3 = system: SK-OV-3
UACC-257 = system: UACC-257
HOP-62 = system: HOP-62
RXF 393 = system: RXF 393
SF-295 = system: SF-295
ACHN = system: ACHN
HT-29 = system: HT-29
COLO 205 = system: COLO 205
SF-539 = system: SF-539
TK-10 = system: TK-10
HL-60 = system: HL-60
MOLT-4 = system: MOLT-4

Measured: GI50

COC(=O)CC[C@]12C[C@]13CC[C@]1(C)C4C(C)C[C@]5(CC(C)C(=O)O5)OC4CC1(C)C3CCC2C(C)(C)O (stereo not given in full)
inactive: OVCAR-8 41.7 µM | NCI-H522 62.1 µM | SR 42.2 µM | K562 49.9 µM | SK-OV-3 > 100 µM | UACC-257 67.1 µM | HOP-62 45.6 µM | RXF 393 46.8 µM | SF-295 > 100 µM | ACHN 88.3 µM | HT-29 > 100 µM | COLO 205 74.8 µM | SF-539 50.6 µM | TK-10 > 100 µM | HL-60 23.3 µM

C[C@]12CCC(=O)C[C@H]1CCC(O)[C@@H]2Br (stereo not given in full)
inactive: OVCAR-8 > 100 µM | NCI-H522 > 100 µM | SR > 100 µM | K562 > 100 µM | SK-OV-3 > 100 µM | UACC-257 > 100 µM | HOP-62 > 100 µM | MOLT-4 > 100 µM | SF-295 > 100 µM | ACHN > 100 µM | HT-29 > 100 µM | COLO 205 > 100 µM | SF-539 > 100 µM | TK-10 > 100 µM | HL-60 > 100 µM

COc1ccc(O)cc1C=O
inactive: OVCAR-8 > 100 µM | SR 18.8 µM | K562 33.9 µM | SK-OV-3 > 100 µM | UACC-257 48.1 µM | HOP-62 > 100 µM | RXF 393 > 100 µM | MOLT-4 67.6 µM | SF-295 > 100 µM | ACHN > 100 µM | HT-29 > 100 µM | COLO 205 > 100 µM | SF-539 > 100 µM | TK-10 > 100 µM | HL-60 21.4 µM

CCOc1ccccc1/N=N/c1ccc2oc(=O)c(C(=O)Nc3cccc(C)c3)cc2c1
inactive: OVCAR-8 24.7 µM | NCI-H522 17.9 µM | K562 23.3 µM | SK-OV-3 49.7 µM | UACC-257 26.1 µM | HOP-62 49.1 µM | MOLT-4 19.9 µM | SF-295 29.6 µM | HT-29 36.2 µM | COLO 205 26.7 µM | SF-539 25.8 µM | TK-10 48.3 µM | HL-60 10.2 µM

CCCCCC/C=C1\CCC(CN2CCCC2)C1=O (stereo not given)
inactive: OVCAR-8 17.2 µM | NCI-H522 1.56 µM | SR 2.99 µM | K562 3.87 µM | SK-OV-3 18.7 µM | UACC-257 17.9 µM | HOP-62 18.7 µM | RXF 393 19.4 µM | MOLT-4 3.76 µM | SF-295 18.9 µM | ACHN 18.3 µM | HT-29 13.9 µM | COLO 205 16.4 µM | SF-539 19 µM | TK-10 6.56 µM | HL-60 2.33 µM

O=C(CCN1CCCCC1CCO)Nc1ccc2c(c1)C(=O)c1ccc(NC(=O)CCN3CCCCC3CCO)cc1C2=O (stereo not given)
inactive: OVCAR-8 3.73 µM | NCI-H522 2.16 µM | SR 4.14 µM | K562 3.85 µM | SK-OV-3 5.12 µM | UACC-257 5.33 µM | HOP-62 4.35 µM | RXF 393 2.12 µM | MOLT-4 4.25 µM | SF-295 16.7 µM | ACHN 7.93 µM | HT-29 5.52 µM | COLO 205 2.11 µM | SF-539 2.1 µM | TK-10 3.1 µM | HL-60 3.24 µM

COc1ccc(C2S/C(=C\c3cccc(O)c3)C(=O)N2NC(=O)Cc2ccccc2)cc1 (stereo not given)
inactive: OVCAR-8 > 100 µM | NCI-H522 > 100 µM | SR > 100 µM | K562 > 100 µM | SK-OV-3 > 100 µM | UACC-257 > 100 µM | HOP-62 > 100 µM | RXF 393 12 µM | MOLT-4 > 100 µM | SF-295 > 100 µM | ACHN > 100 µM | HT-29 > 100 µM | COLO 205 > 100 µM | SF-539 > 100 µM | TK-10 > 100 µM | HL-60 > 100 µM

C[C@@H]1C[C@]2(C[C@@H](C)C3[C@@H](CC4(C)[C@@H]5CCC6C(C)(C)OC(=O)C=C[C@]67C[C@@]5(CC[C@]34C)OO7)O2)OC1=O (stereo not given in full)
inactive: OVCAR-8 67.5 µM | NCI-H522 29.6 µM | SR > 100 µM | K562 28.1 µM | SK-OV-3 43.6 µM | UACC-257 55.2 µM | RXF 393 > 100 µM | SF-295 36 µM | ACHN 92.5 µM | HT-29 > 100 µM | COLO 205 > 100 µM | SF-539 35.8 µM | TK-10 52.1 µM | HL-60 46.2 µM

Cc1c(-c2nnc(-c3ccc(Cl)cc3)o2)c(=O)n(-c2ccccc2)n1C
inactive: OVCAR-8 > 100 µM | NCI-H522 > 100 µM | SR > 100 µM | K562 > 100 µM | SK-OV-3 > 100 µM | UACC-257 > 100 µM | HOP-62 > 100 µM | RXF 393 > 100 µM | MOLT-4 > 100 µM | SF-295 > 100 µM | ACHN > 100 µM | HT-29 > 100 µM | COLO 205 > 100 µM | SF-539 3.33 µM | TK-10 > 100 µM | HL-60 > 100 µM

Oc1c2c(nc3cc4c(cc13)OCO4)-c1ccccc1CC2
inactive: OVCAR-8 > 100 µM | SR > 100 µM | K562 > 100 µM | UACC-257 > 100 µM | HOP-62 > 100 µM | RXF 393 78 µM | MOLT-4 > 100 µM | SF-295 > 100 µM | ACHN > 100 µM | HT-29 > 100 µM | COLO 205 > 100 µM | SF-539 > 100 µM | TK-10 > 100 µM | HL-60 > 100 µM

CCC(C)CNC1=C(NC(C)=O)C(=O)c2ccccc2C1=O (stereo not given)
inactive: OVCAR-8 > 100 µM | NCI-H522 78.2 µM | SR > 100 µM | K562 > 100 µM | SK-OV-3 > 100 µM | UACC-257 > 100 µM | HOP-62 > 100 µM | RXF 393 > 100 µM | MOLT-4 > 100 µM | SF-295 > 100 µM | ACHN > 100 µM | HT-29 > 100 µM | COLO 205 78.9 µM | SF-539 > 100 µM | TK-10 > 100 µM | HL-60 > 100 µM

Nc1nc(-c2ccco2)cc(-c2ccco2)n1
inactive: OVCAR-8 > 100 µM | NCI-H522 > 100 µM | SR > 100 µM | K562 > 100 µM | HOP-62 > 100 µM | RXF 393 > 100 µM | MOLT-4 > 100 µM | SF-295 > 100 µM | ACHN > 100 µM | HT-29 > 100 µM | COLO 205 > 100 µM | SF-539 > 100 µM | TK-10 > 100 µM | HL-60 > 100 µM

CN(C)c1ccc(/C=C(\C#N)C(=O)c2ccccc2)cc1Br
inactive: OVCAR-8 > 100 µM | NCI-H522 > 100 µM | SR 38.5 µM | K562 59.8 µM | SK-OV-3 > 100 µM | UACC-257 > 100 µM | HOP-62 20.8 µM | RXF 393 14.6 µM | MOLT-4 36.2 µM | SF-295 > 100 µM | ACHN > 100 µM | HT-29 > 100 µM | COLO 205 > 100 µM | SF-539 > 100 µM | TK-10 > 100 µM | HL-60 25.7 µM

C/C=C(/CCC1NCCC2c3ccccc3NC12)[Si](C)(C)C (stereo not given)
inactive: OVCAR-8 7.98 µM | NCI-H522 16 µM | SR 2.9 µM | K562 2.75 µM | SK-OV-3 15.7 µM | UACC-257 4.38 µM | HOP-62 15.2 µM | RXF 393 6.53 µM | MOLT-4 3.17 µM | SF-295 15.6 µM | ACHN 14.2 µM | HT-29 2.83 µM | COLO 205 1.69 µM | SF-539 15.8 µM | TK-10 15 µM | HL-60 2.12 µM

N/N=C1\c2ccccc2C2/C(=N\N)c3ccccc3C12 (stereo not given)
inactive: OVCAR-8 > 100 µM | NCI-H522 > 100 µM | K562 > 100 µM | SK-OV-3 > 100 µM | UACC-257 > 100 µM | RXF 393 > 100 µM | MOLT-4 > 100 µM | SF-295 > 100 µM | ACHN > 100 µM | HT-29 > 100 µM | COLO 205 > 100 µM | SF-539 > 100 µM | TK-10 > 100 µM | HL-60 > 100 µM

COc1cc(Nc2cnc3ccc(N)cc3n2)cc(OC)c1OC
inactive: OVCAR-8 > 100 µM | NCI-H522 50.1 µM | K562 18.5 µM | SK-OV-3 > 86.9 µM | UACC-257 > 57 µM | HOP-62 29.2 µM | RXF 393 45.3 µM | MOLT-4 49 µM | SF-295 > 96.6 µM | ACHN > 100 µM | HT-29 48.9 µM | COLO 205 42.5 µM | TK-10 > 83.6 µM | HL-60 17.7 µM

CC(C)(C)c1ccccc1NS(=O)(=O)c1ccccc1
inactive: OVCAR-8 > 100 µM | K562 44.9 µM | SK-OV-3 > 100 µM | UACC-257 45.1 µM | HOP-62 > 100 µM | RXF 393 76.7 µM | MOLT-4 38 µM | SF-295 86.1 µM | ACHN > 100 µM | HT-29 66.7 µM | SF-539 > 100 µM | TK-10 > 100 µM | HL-60 36.9 µM

N=C(c1ccccc1)N1CCCCC1
inactive: OVCAR-8 > 100 µM | NCI-H522 > 100 µM | SR > 100 µM | UACC-257 > 100 µM | HOP-62 > 100 µM | RXF 393 > 100 µM | SF-295 > 100 µM | HT-29 > 100 µM | COLO 205 > 100 µM | SF-539 > 100 µM | TK-10 > 100 µM | HL-60 > 100 µM
